From US20150362491A1, “METHODS AND ASSAYS RELATING TO RNF216” (THE GENERAL HOSPITAL CORPORATION, priority 2013, published 2015)

Key:
[1] = system: rnf216 and rnf216+otud4 (DMO) morphants; assay: in vivo zebrafish assay of neuronal survival and degeneration, SFN co-injected into morphants; conditions: for morphants with optic tectum defects: 3 dpf
Experimental: Zebrafish embryo injections. Zebrafish were maintained and mated according to standard procedures.^49 Wild-type zebrafish embryos were injected at the 1-4 cell stage with 1 nl diluted MO and 0.5% phenol red. […] For the epistatic interaction experiments, a cocktail containing 6 ng each of rnf216- and otud4-targeting MO was used.
(§1) Zebrafish embryo phenotyping. Injected embryos were scored at 3 days post fertilization for microphthalmia by measuring the area of the eye cup. For immunofluorescence studies, embryos were fixed in Dent's fixative (80% methanol, 20% dimethylsulfoxide) overnight at 4° C. After rehydration with decreasing series of methanol in PBS, the embryos were washed with PBS, permeabilized with 10 μg/ml proteinase K, and postfixed with 4% PFA. Embryos were then washed twice with IF buffer (0.1% Tween-20, 1% BSA in 1×PBS) for 10 min at room temperature. After incubation in blocking solution (10% FBS, 1% BSA in 1×PBS) for 1 h at room temperature, embryos were incubated with anti-α acetylated tubulin (1:1000; T7451, Sigma-Aldrich), overnight at 4° C. After two washes in IF buffer for 10 min, embryos were incubated with Alexa Fluor goat anti-mouse IgG (1:1000; A21207, A11001, Invitrogen) for 1 h at room temperature. Image acquisition and analysis was performed using Nikon NIS-Elements Advanced Research software. For each test, 50-100 embryos were injected and scored by two investigators who were blind to the injection cocktail. All experiments were performed 2-3 times and statistical significance was calculated using Student's t-test.
This hypothesis will be tested in Rnf216^−/− and Otud4^−/− mice.

[2] = system: pituitary response to GnRH; conditions: Subject 3, cited from earlier work
[3] = system: pituitary response to GnRH; assay: reproductive endocrine phenotyping with exogenous GnRH; assay type: in vivo, human
Experimental: Reproductive Endocrine Phenotyping. Subjects 2, 6, and 8 underwent blood sampling every 10-15 minutes for 3.25-12 h to examine the frequency, amplitude, and morphology of endogenous GnRH-induced luteinizing hormone (LH) pulse patterns. Pulses of LH secretion were identified using a modified version of the method of Santen and Bardin.^45-46 Subjects 1, 2, 6, and 8 received exogenous, pulsatile GnRH with monitoring of gonadotropin responses as described previously.^47-48 Hormone assays were performed as described in ref 48; the Second International Reference Preparation was used as the standard for LH and FSH.

zebrafish embryos = assay: zebrafish embryo morpholino knock-down and human mRNA rescue phenotyping; assay type: in vivo; conditions: for organization of the cerebellum (axonal tracts) / size of the optic tectum: 3 d.p.f., anti-α acetylated tubulin staining
Experimental: Zebrafish Investigation. All experiments were carried out with the approval of the Institutional Animal Care and Use Committee. Morpholino oligos (MO) for silencing of zebrafish rnf216 and otud4 were injected either alone or with wild-type (WT) or mutant human mRNA for RNF216, OTUD4, or both.
Morpholino oligonucleotide design. Morpholino oligos were obtained from Gene Tools, LLC (Philomath, Oreg., USA). Reciprocal BLAST against the zebrafish genome identified a sole zebrafish ortholog of […] (ENSDARG00000087893, 59% similarity, 46% identity). The antisense MO used for the silencing of zebrafish rnf216 targeted the intron 5′ donor splice site of the gene: […] (SEQ ID NO: 7).
(§2) Similar to rnf216, a sole ortholog of the human transcript for OTUD4 was identified in zebrafish (73% similarity, 61% identity). […] The MO for otud4 targeted the donor splice site of intron 2: […] (SEQ ID NO: 8).
Zebrafish embryo injections. Zebrafish were maintained and mated according to standard procedures.^49 Wild-type zebrafish embryos were injected at the 1-4 cell stage with 1 nl diluted MO and 0.5% phenol red. A dose of 6 ng of rnf216 or otud4-targeting MO was used as it gave the best rate of silencing and the minimum rate of mortality among the tested working dilutions (4-10 ng). For the epistatic interaction experiments, a cocktail containing 6 ng each of rnf216- and otud4-targeting MO was used.
For RNA rescue experiments, human wild-type or mutant RNF216 (NM_207116.2) and OTUD4 (NM_001102653.1) were cloned into the pCS2+ expression vector and transcribed in vitro using the SP6 Message Machine Kit (Ambion) to produce capped mRNA, and 200 pg of mRNA was injected for the rescue experiments.
as §1

[4] = system: otud4 endogenous transcript; assay: efficiency of the morpholinos (splicing of endogenous transcript, gel); assay type: in vivo, zebrafish; conditions: otud4 MO 4-10 ng; intron 5 retained
Experimental: FIG. 8B depicts a gel of the results of injection of the otud4 MO (4-10 ng), which reduces normal splicing of the endogenous transcript by 90% and favors aberrant splicing resulting in a transcript where intron 5 (73 bp in size) is retained.
as §2

[5] = treatment of rnf216 and DMO morphants with SFN

C[S@@+]([O-])CCCCN=C=S [SFN, 1-isothio-cyanato-4(R)-methylsulfinylbutane]
morphants with optic tectum defects ([1]; DMO (rnf216+otud4) morphants co-injected with SFN, from 41% without SFN, p<0.001): 15% | cerebellar disorganization phenotype ([1]; co-injection of SFN with DMO): failed to ameliorate | cerebellar disorganization phenotype ([1]; co-injection of SFN with rnf216 MO): failed to ameliorate | morphants with optic tectum defects ([1]; rnf216 morphants co-injected with SFN, from 32% without SFN, p<0.001): 15% | cerebellar degeneration phenotype (FIG. 10E) [1, 5]: not the cerebellar degeneration phenotype | optic tectum phenotype (FIG. 10D) [1, 5]: rescues the optic tectum phenotype

gonadotropin-releasing hormone (QHWSYGLRPG; Gonadoliberin-1; UniProt P01148 24-33, looked up) [GnRH]
LH after GnRH ([2]; 90 min after GnRH, baseline 0.06 IU/L): 5.8 IU/L | FSH after GnRH ([2]; 120 min, baseline 0.14 IU/L): 2.0 IU/L | LH response to exogenous GnRH at a standard dose ([3]; Subject 6): immediate robust increase in LH | testicular volumes ([3]; Subject 8, exogenous pulsatile GnRH 25 to 600 ng/kg q2 h over 2 y, from 2 mL): 8 mL | gonadotropin responses to pulsatile exogenous GnRH over 7 days ([3]; Subjects 1 and 2, bedridden, late in the course of disease): failed to exhibit gonadotropin responses

human RNF216 mRNA: capped wild-type human RNF216 (NM—207116.2) mRNA transcribed in vitro, 200 pg injected
rescue of the phenotypes induced by double MO injection (zebrafish embryos; co-injection of mRNA with double MO): rescued all phenotypes | rescue of the tectal phenotype (zebrafish embryos; co-injection of mRNA with rnf216 MO): fully rescued

otud4 MO: splice-blocking morpholino against zebrafish otud4: TACCCGAAGGAATTTGCGCACCATT (SEQ ID NO: 8) (all phosphorodiamidate morpholino (PMO))
reduction of normal splicing of the endogenous transcript [4]: 90% | organization of the cerebellum (axonal tracts) (zebrafish embryos): cerebellar defects | size of the optic tectum (zebrafish embryos): reduction in size of the optic tectum

rnf216 MO: antisense morpholino silencing zebrafish rnf216, donor splice site: CAGAAAATAGTTTGTGCTTACACAT (SEQ ID NO: 7) (all phosphorodiamidate morpholino (PMO))
morphants with optic tectum defects ([1]; morphants without SFN): 32% | organization of the cerebellum (axonal tracts) (zebrafish embryos): disorganization of axonal tracts in the cerebellum | size of the optic tectum (zebrafish embryos): reduction in size of the optic tectum
